Measured values taken from PubChem BioAssay (NCI).
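A five-concentration, 48-hour dose response in 96-well plates underlies each endpoint, interpolated linearly between surrounding concentrations. TGI denotes the concentration required for complete inhibition of growth.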

How the values were obtained:
Assay in all cases: NCI-60 cell line screen, 48 h
[1] = system: UACC-257 melanoma
[2] = system: HOP-92 NSCLC
[3] = system: A498 renal
[4] = system: HCT-15 colon
[5] = system: OVCAR-3 ovarian
[6] = system: HL-60(TB) leukemia
[7] = system: RXF-631 renal
[8] = system: OVCAR-5 ovarian
[9] = system: DMS 114 small cell lung
[10] = system: HCT-116 colon
[11] = system: MOLT-4 leukemia
[12] = system: NCI-H460 lung
[13] = system: SN12C renal
[14] = system: NCI-H226 lung
[15] = system: HT29 colon
[16] = system: IGROV1 ovarian
[17] = system: M19-MEL melanoma
[18] = system: TK-10 renal
[19] = system: SNB-78 CNS
[20] = system: ACHN renal
[21] = system: KM20L2 colon
[22] = system: SK-MEL-28 melanoma
[23] = system: HOP-18 NSCLC
[24] = system: DLD-1 colon
[25] = system: HCC-2998 colon
[26] = system: NCI-H23 lung
[27] = system: SF-268 CNS
[28] = system: SK-MEL-5 melanoma
[29] = system: SNB-75 CNS
[30] = system: UO-31 renal
[31] = system: K-562 leukemia
[32] = system: MALME-3M melanoma
[33] = system: SW-620 colon
[34] = system: CCRF-CEM leukemia
[35] = system: 786-0 renal
[36] = system: M14 melanoma
[37] = system: RXF 393 renal
[38] = system: UACC-62 melanoma
[39] = system: SNB-19 CNS
[40] = system: SF-539 CNS
[41] = system: RPMI-8226 leukemia
[42] = system: HOP-62 NSCLC
[43] = system: EKVX NSCLC
[44] = system: LXFL 529 NSCLC
[45] = system: CAKI-1 renal
[46] = system: OVCAR-8 ovarian
[47] = system: A549 NSCLC
[48] = system: SR leukemia
[49] = system: SF-295 CNS
[50] = system: OVCAR-4 ovarian
[51] = system: COLO 205 colon
[52] = system: LOX IMVI melanoma
[53] = system: KM12 colon
[54] = system: SK-OV-3 ovarian
[55] = system: SK-MEL-2 melanoma
[56] = system: U251 CNS
[57] = system: DMS 273 small cell lung
[58] = system: NCI-H522 lung
[59] = system: XF 498 CNS

Measured: TGI

COc1cc2c(cc1O)CC13CCC(=O)N1CCc1cc(OC)c(O)c-2c13 (configuration not stated)
not listed: [53] | [54] | [55] | [56] | [57] | [58] | [59]
> 68.1 µM: all other assays above

NCCNc1cccc2ccccc12
not listed: [11] | [22] | [28] | [29] | [31] | [34] | [59]
> 100 µM: all other assays above

COc1ccc(/C(=N/Nc2ccccc2)C(c2ccc(OC)cc2)C2OC(=O)c3ccccc32)cc1 (configuration not stated)
91.8 µM: [27]
65.8 µM: [14]
not listed: [2] | [5] | [6] | [8] | [17] | [18] | [19] | [22] | [23] | [24] | [26] | [33] | [37] | [41] | [44] | [48] | [52] | [53] | [54]
> 100 µM: all other assays above

NC(N)=NNC(=O)CCCCCCCC(=O)NN=C(N)N
34.1 µM: [4]
35.4 µM: [51]
27.4 µM: [33]
not listed: [2] | [5] | [11] | [14] | [23] | [29] | [41] | [46] | [48] | [58] | [59]
> 100 µM: all other assays above
